PubChem BioAssay AID330 (DTP/NCI, 2004)
“And” between values parts separate entries of the source, which are not always exact repeats. Identical values can stand only once. Inconclusive results and toxic doses are left out. Rule for the calls: active = survival T/C of 150% or more; inactive = T/C below 125% in these data.

Tested on: P388 leukemia ip, CD2F1 mice, survival T/C
Test: NCI In Vivo Anticancer Drug Screen. Data for tumor model P388 Leukemia (intraperitoneal) in CD2F1 (CDF1) mice
Settings: endpoint: median survival time, higher = longer survival
Method in brief: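 Mice carrying the transplanted tumor received test compound or vehicle. Survival was recorded in each group, and the value is the treated-group measurement divided by that of the vehicle-treated control group.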

[1] = dose: 50.0 mg/kg/injection, schedule: Q01DX005 (ip), vehicle: Klucel (hydroxypropylcellulose) (HPC)
[2] = dose: 100.0 mg/kg/injection, schedule: Q01DX005 (ip), vehicle: Klucel (hydroxypropylcellulose) (HPC)
[3] = dose: 12.5 mg/kg/injection, schedule: Q01DX009 (ip), vehicle: saline
[4] = dose: 25.0 mg/kg/injection, schedule: Q01DX009 (ip), vehicle: saline
[5] = dose: 100.0 mg/kg/injection, schedule: Q04DX002 (ip), vehicle: saline
[6] = dose: 200.0 mg/kg/injection, schedule: Q04DX002 (ip), vehicle: saline
[7] = dose: 50.0 mg/kg/injection, schedule: Q01DX005 (ip), vehicle: saline with Tween-80
[8] = dose: 100.0 mg/kg/injection, schedule: Q01DX005 (ip), vehicle: saline with Tween-80
[9] = dose: 200.0 mg/kg/injection, schedule: Q01DX005 (ip), vehicle: saline with Tween-80
[10] = dose: 50.0 mg/kg/injection, schedule: Q01DX005 (ip), vehicle: saline
[11] = dose: 100.0 mg/kg/injection, schedule: Q01DX005 (ip), vehicle: saline
[12] = dose: 200.0 mg/kg/injection, schedule: Q01DX005 (ip), vehicle: saline
[13] = dose: 50.0 mg/kg/injection, schedule: Q01DX009 (ip), vehicle: saline
[14] = dose: 100.0 mg/kg/injection, schedule: Q01DX009 (ip), vehicle: saline
[15] = dose: 200.0 mg/kg/injection, schedule: Q01DX009 (ip), vehicle: saline
[16] = dose: 200.0 mg/kg/injection, schedule: Q01DX005 (ip), vehicle: Klucel (hydroxypropylcellulose) (HPC)

Measured: T/C

CC(=O)OC(NC(=O)c1cc(C)cc(C)c1)c1ccncc1 (centres undefined)
inactive: [1] 97 % of control | [2] 86 % of control

COc1ccc(NC(=O)C2C(=O)N(c3ccc(OC)cc3)C(=O)/C2=N/N=C(N)N)cc1 (centres undefined)
inactive: dose: 25.0 mg/kg/injection, schedule: Q04DX002 (ip), vehicle: saline with Tween-80 99 % of control | dose: 50.0 mg/kg/injection, schedule: Q04DX002 (ip), vehicle: saline with Tween-80 101 % of control | dose: 100.0 mg/kg/injection, schedule: Q04DX002 (ip), vehicle: saline with Tween-80 98 % of control and 101 % of control

CC(=O)N1c2ccccc2C23CCN(C)CC4C(C)OCC(C4CC2=O)C13 (centres undefined)
inactive: dose: 2.0 mg/kg/injection, schedule: Q01DX009 (ip), vehicle: Klucel (hydroxypropylcellulose) (HPC) 100 % of control | dose: 4.0 mg/kg/injection, schedule: Q01DX009 (ip), vehicle: Klucel (hydroxypropylcellulose) (HPC) 95 % of control | dose: 8.0 mg/kg/injection, schedule: Q01DX009 (ip), vehicle: Klucel (hydroxypropylcellulose) (HPC) 98 % of control | dose: 16.0 mg/kg/injection, schedule: Q01DX009 (ip), vehicle: Klucel (hydroxypropylcellulose) (HPC) 100 % of control | dose: 32.0 mg/kg/injection, schedule: Q01DX009 (ip), vehicle: Klucel (hydroxypropylcellulose) (HPC) 100 % of control

CCOC(=O)[n+]1ccc(-c2cc[n+](C(=O)OCC)cc2)cc1
inactive: [3] 88 % of control | [4] 91 % of control

CN1NC1(C)C (centres undefined)
inactive: dose: 50.0 mg/kg/injection, schedule: Q04DX002 (ip), vehicle: saline 100 % of control | [5] 110 % of control | [6] 98 % of control

O=P(C/C=C/CO)(c1ccccc1)c1ccccc1
inactive: [7] 98 % of control | [8] 98 % of control | [9] 103 % of control

O=C1CC(=O)NP(=O)(Oc2ccccc2)N1
inactive: [5] 103 % of control | [6] 100 % of control

O=C(c1cc(Nc2ccnc3cc(Cl)ccc23)ccc1O)N1CCCCC1
inactive: [8] 120 % of control | [9] 121 % of control

CC1=NN(C(=O)CC(=O)Nc2ccc(C(=O)O)cc2)C(=O)C1N=Nc1ccccc1 (centres undefined)
inactive: [10] 105 % of control | [11] 102 % of control | [12] 108 % of control

COCC1(C)CCCC2(C)C1CCC1(O)CCCCC12O (centres undefined)
inactive: dose: 100.0 mg/kg/injection, schedule: Q01DX001 (ip), vehicle: saline 100 % of control | dose: 200.0 mg/kg/injection, schedule: Q01DX001 (ip), vehicle: saline 100 % of control | dose: 400.0 mg/kg/injection, schedule: Q01DX001 (ip), vehicle: saline 108 % of control

CC1CN(S(=O)(=O)c2cc(Cl)c(Oc3ccc([N+](=O)[O-])cc3Cl)c(Cl)c2)CC(C)O1 (centres undefined)
inactive: dose: 60.0 mg/kg/injection, schedule: Q01DX005 (ip), vehicle: Klucel (hydroxypropylcellulose) (HPC) 106 % of control | dose: 120.0 mg/kg/injection, schedule: Q01DX005 (ip), vehicle: Klucel (hydroxypropylcellulose) (HPC) 101 % of control | dose: 240.0 mg/kg/injection, schedule: Q01DX005 (ip), vehicle: Klucel (hydroxypropylcellulose) (HPC) 97 % of control

O=C(Oc1ccc[nH]c1=O)c1cc([N+](=O)[O-])cc([N+](=O)[O-])c1
inactive: [3] 99 % of control and 100 % of control | [4] 98 % of control and 107 % of control | [13] 99 % of control and 103 % of control | [14] 100 % of control | [15] 98 % of control and 101 % of control | dose: 400.0 mg/kg/injection, schedule: Q01DX009 (ip), vehicle: saline 100 % of control and 109 % of control

NC(=O)c1cn(CCO)nc1[N+](=O)[O-]
inactive: [13] 100 % of control | [14] 100 % of control | [15] 119 % of control

CC(C)(C#N)NCCCNC(C)(C)C#N
inactive: [10] 100 % of control | [11] 97 % of control | [12] 95 % of control

O=C(Cl)CCc1cc(Cl)no1
inactive: dose: 3.13 mg/kg/injection, schedule: Q04DX003 (ip), vehicle: other 109 % of control | dose: 6.25 mg/kg/injection, schedule: Q04DX003 (ip), vehicle: other 97 % of control | dose: 12.5 mg/kg/injection, schedule: Q04DX003 (ip), vehicle: other 100 % of control | dose: 25.0 mg/kg/injection, schedule: Q04DX003 (ip), vehicle: other 103 % of control | dose: 50.0 mg/kg/injection, schedule: Q04DX003 (ip), vehicle: other 107 % of control | dose: 100.0 mg/kg/injection, schedule: Q04DX003 (ip), vehicle: other 107 % of control | dose: 200.0 mg/kg/injection, schedule: Q04DX003 (ip), vehicle: other 100 % of control

NS(=O)(=O)c1cccnc1Nc1ccc([N+](=O)[O-])cc1
inactive: [13] 105 % of control | [14] 101 % of control | [15] 93 % of control

CC(C)COC(=O)N1c2ccccc2C=CC1OCC(C)C (centres undefined)
inactive: dose: 1.56 mg/kg/injection, schedule: Q01DX005 (ip), vehicle: Klucel (hydroxypropylcellulose) (HPC) 104 % of control | dose: 3.12 mg/kg/injection, schedule: Q01DX005 (ip), vehicle: Klucel (hydroxypropylcellulose) (HPC) 100 % of control | dose: 6.25 mg/kg/injection, schedule: Q01DX005 (ip), vehicle: Klucel (hydroxypropylcellulose) (HPC) 104 % of control | dose: 6.25 mg/kg/injection, schedule: Q01DX005 (ip), vehicle: saline with Tween-80 109 % of control | dose: 12.5 mg/kg/injection, schedule: Q01DX005 (ip), vehicle: saline with Tween-80 112 % of control

S=C([S][Sn]([c]1ccccc1)([c]1ccccc1)[c]1ccccc1)N1CCOCC1
inactive: dose: 1.56 mg/kg/injection, schedule: Q01DX009 (ip), vehicle: saline with Tween-80 100 % of control | dose: 3.13 mg/kg/injection, schedule: Q01DX009 (ip), vehicle: saline with Tween-80 100 % of control and 103 % of control and 109 % of control | dose: 6.25 mg/kg/injection, schedule: Q01DX009 (ip), vehicle: saline with Tween-80 107 % of control and 108 % of control | dose: 12.5 mg/kg/injection, schedule: Q01DX009 (ip), vehicle: saline with Tween-80 105 % of control

CN(C)CC[CH2][Sn]([CH2]CCN(C)C)([CH2]CCN(C)C)[CH2]CCN(C)C
inactive: dose: 50.0 mg/kg/injection, schedule: Q01DX009 (ip), vehicle: saline with Tween-80 105 % of control | dose: 100.0 mg/kg/injection, schedule: Q01DX009 (ip), vehicle: saline with Tween-80 97 % of control

CCOC(=O)C1(CN(C)c2ccccc2)C(C(C)=O)=CNc2c(C#N)cnn21 (centres undefined)
inactive: [7] 99 % of control | [8] 98 % of control | [9] 106 % of control

CC12CCC(OC3CCCCO3)CC1=CCC1C2CCC2(C)C(O)/C(=N\O)CC12 (centres undefined)
inactive: [5] 91 % of control | [6] 94 % of control | dose: 400.0 mg/kg/injection, schedule: Q04DX002 (ip), vehicle: saline 90 % of control

COc1ccc([N+](=O)[O-])c(OC(C)=O)c1OC
inactive: dose: 12.5 mg/kg/injection, schedule: Q01DX009 (ip), vehicle: other 104 % of control | dose: 50.0 mg/kg/injection, schedule: Q01DX009 (ip), vehicle: other 93 % of control | dose: 100.0 mg/kg/injection, schedule: Q01DX009 (ip), vehicle: other 89 % of control | dose: 200.0 mg/kg/injection, schedule: Q01DX009 (ip), vehicle: other 89 % of control

COC(=O)C1(C(C)C(=O)c2ccccc2)NC(=S)NC(=O)C1C#N (centres undefined)
inactive: dose: 60.0 mg/kg/injection, schedule: Q01DX005 (ip), vehicle: saline 88 % of control | dose: 120.0 mg/kg/injection, schedule: Q01DX005 (ip), vehicle: saline 98 % of control | dose: 240.0 mg/kg/injection, schedule: Q01DX005 (ip), vehicle: saline 100 % of control

COc1ccc2c(c1)CC[C@@H]1[C@@H]2CC[C@@]2(C)[C@H]1CC[C@@]2(O)C(F)=C(F)F
inactive: dose: 100.0 mg/kg/injection, schedule: Q04DX003 (ip), vehicle: saline with Tween-80 88 % of control | dose: 200.0 mg/kg/injection, schedule: Q04DX003 (ip), vehicle: saline with Tween-80 88 % of control

CCCCCCCCCCCCCCCC[N+](C)(C)CCN
inactive: [3] 93 % of control | [4] 99 % of control | [13] 106 % of control

O=C(Nc1nc2ccccc2s1)Nc1ccc([N+](=O)[O-])cc1Cl
inactive: [1] 98 % of control | [2] 94 % of control | [16] 90 % of control

N#CCCNCCC[Si]12OCCN(CCO1)CCO2
inactive: [1] 97 % of control | [2] 100 % of control | [16] 101 % of control and 103 % of control

CCCCc1c(O)c(N=NC(=N)N)c2ccccc2c1O
inactive: [7] 100 % of control | [8] 101 % of control | [9] 99 % of control

S=C(Nc1cc(Cl)cc(Cl)c1)SCc1ccccc1
inactive: [13] 100 % of control | [14] 99 % of control | [15] 107 % of control
